# Measurements as given in patent US20220347299A1, “FLUORESCENT SYSTEMS FOR BIOLOGICAL IMAGING AND USES THEREOF” (LIGHTOX LIMITED, priority 2019, published 2022).
# Assays:
# S. epidermidis [1] = test: Baclight staining (propidium iodide / Syto 9), widefield imaging, S. epidermidis; format: cell-based, Staphylococcus epidermis; settings: 1 μM
# Protocol: Samples prepared according to Table 9 were treated with compounds by diluting 10 mM of stock solution in media to make a 100 μM concentration. This solution was then further diluted 1:10 and 1:100 in media to make 10 μM and 1 μM media solutions containing the compound. 50 μl of cell culture were then added to the 100 μM, 10 μM and 1 μM compound-containing media preparations. Following the treatment outlined in Table 9, each of the three bacterial strains were stained using a Baclight™ staining kit containing separate solutions of Syto™ 9 and Propidium Iodide. One extra sample treated with 0.1 μM of each compound was also included in this assay. M. smegmatis, S. epidermis and B. subtilis were stained with propidium iodide to show non-viable cells and with Syto 9 to show all cells. The following staining procedure was used: • 1. 1 ml of each sample was eluted into a well of a 12-well plate; • 2. One half of the 12 well plate was irradiated at approximately 15 mW/cm^2 for 5 mins; • 3. The content of each well was eluted into separate Eppendorfs and centrifuged at 10,000 r.p.m for 3 rains to form a culture pellet; • 4. Media was then removed, and each pellet resuspended in 200 μl of 1× PBS before being centrifuged at 10,000 r.p.m. for 3 mins. • 5. A preparation of Baclight™-staining solution was made using 1 ml 1× PBS, 3 μl propidium iodide and 3 μl Syto™ 9; • 6. […]
# HaCaT keratinocytes = test: Co-staining with organelle markers, co-localisation (PCC); format: cell-based; settings: 1 μM compound, 30 minutes, BODIPY ER-Tracker Red
# Protocol: To study the localisation of compounds in biological cells, co-staining of compounds of formula I with specific organelle markers (fluorescent dyes and antibodies) within biological cells was conducted. The following compounds were studied: compounds 6, 7, 12, 13, 14 and 15. HaCaT keratinocyte cell lines were used for the following experimental procedures. The cells were incubated in cell culture media (94% Dulbecco's Modified Eagle Medium (DMEM), 5% Foetal Bovine Serum (FBS) and 1% Penicillin Streptomycin solution (Pen-Strep). The cells were plated in 8-well plates, at a concentration of 25,000 cells per ml. 200 μl of cell suspension was added to each well, and the cells were incubated for 2 days before staining and imaging was carried out. In order to visualise the mitochondria, cells were probed with the mitochondrial dye MitoTracker® Deep Red. Cells to be stained were incubated with 200 μl MitoTracker® Deep Red solution (200 nM MitoTracker® and 1 μM Formula I compound in cell culture media) per well (N=3) for 30 minutes. Nile Red was used to identify lipids within the cells. 200 μl Nile Red Lipophilic dye (10 μg/ml Nile Red and 1 μM Formula I compound in cell culture media) was added to each well (N=3) and incubated for 30 minutes. For the detection of lysosomes within the cells, LysoTracker® Red DND-99 dye was used. 200 μl LysoTracker® Red DND-99 (50 nM LysoTracker® and 1 μM Formula I compound solution in cell culture media) was added to each well (N=3) and incubated for 30 minutes. For visualisation of the endoplasmic reticulum (ER), cells were stained with BODIPY® ER-Tracker® Red. 200 μl BODIPY ER-Tracker® Red (1 μM BODIPY® and 1 μM Formula I compound solution in cell culture media) was added to each well (N=3) and incubated for 30 minutes. Following incubation, the cell culture media containing dye was removed, and cells were washed twice with 200 μl phosphate buffered saline (PBS). After washing, 200 μl PBS was added into each well for imaging. For visualisation of the nuclear lamina, cells were probed with an anti-lamin A/C antibody. The cells were plated on 22×22 mm cover slips (10,000 cells/ml) and incubated for 2 days before staining. The cells were washed with PBS to remove excess media before staining. The cells were fixed with 4% paraformaldehyde (PFA) for 10 minutes at room temperature, before being washed twice in PBS for 5 minutes. Following washing, the cells were permeabilised in 0.4% Triton X-100 in PBS for 10 minutes. The cells were subsequently washed three times in PBS for 5 minutes, before being incubated in blocking buffer (1% BSA, 0.1% fish gelatine and 0.1% Triton X-100 in PBS) for 15 minutes at room temperature. The cells were incubated in primary antibody (mouse anti-lamin A/C IgG in blocking buffer) for 1 hour at room temperature. The cells were then washed twice in blocking buffer and incubated in secondary antibody (anti-mouse Alexa-594 IgG in blocking buffer) for 30 minutes at room temperature. Cells were washed twice in PBS for 10 minutes at room temperature. For cell staining with compounds of formula I, 5 μM of the compound of formula I in PBS was added to the cells for 30 minutes at room temperature. Cells were then washed five times for 5 minutes in PBS. Following washing, the cells were mounted onto non-charged microscopy slides using 6 μl Mowiol® per cover slip as mounting media. A Zeiss 880 confocal microscope was used for all the imaging work. [table] Image) Coloc2 software was used to calculate co-localization statistics between the compounds of formula I and the organelle marker images. The background was subtracted from each image and a region of interest (ROI) was used to target the analysis. The point spread function (PSF) of each image was calculated as 2.0 and Coastes' iterations was set to 100. The statistic quantified was the Pearson's Correlation Coefficient (PCC). PCC gives a number ranging from +1 to −1:1=perfect co-localisation; 0=no relationship; and, −1=perfect anti-co-localisation. […]
# Bacillus subtilis = test: Overnight growth curve (OD 600 nm) cytotoxicity assay, B. subtilis; format: cell-based
# Protocol: A sample of B. subtilis was taken from a plate culture and inoculated into Luria Broth to culture overnight at 37° C. for approximately 16 hours. [table] Samples were incubated in darkness at room temperature for approximately 2 hrs. A black clear bottom Costar™-96 well plate was then filled, with 200 μl of sample in each well Cells were irradiated for 5 minutes at approximately 15 mW/cm^2. The cytotoxicity of the compounds without irradiation was also assessed. The 96 well plate was put into the plate reader and set up to run a growth curve protocol using the following parameters: • Incubation temperature: 37° C. • OD read wavelength 600 nm • 250 cycles, readings every 5 rains • Shaking for 5 s pre-reading This was left to run overnight to obtain kinetic growth curves based on optical density readings.
# S. epidermidis [2] = test: Overnight growth curve (OD 600 nm) cytotoxicity assay, S. epidermidis; format: cell-based, Staphylococcus epidermis
# Protocol: A sample of S. epidermidis was taken from a plate culture and inoculated into Luria Broth to culture overnight at 30° C. for approximately 16 hours.
# Samples were incubated in darkness at room temperature for approximately 2 hrs. A black clear bottom Costar™-96 well plate was then filled, with 200 μl of sample in each well Cells were irradiated for 5 minutes at approximately 15 mW/cm^2. The cytotoxicity of the compounds without irradiation was also assessed.
# The 96 well plate was put into the plate reader and set up to run a growth curve protocol using the following parameters: • Incubation temperature: 37° C. • OD read wavelength 600 nm • 250 cycles, readings every 5 rains • Shaking for 5 s pre-reading
# This was left to run overnight to obtain kinetic growth curves based on optical density readings.
# [3] = Peak absorption and fluorescence emission wavelengths in solvents; format: physicochemical; settings: for λem(max)/nm: 100 nM, excitation at peak of absorption; for λabs(max)/nm: 10 μM
# Protocol: Peak absorption and fluorescence emission wavelengths of compounds 6, 7, 12, 13, 14, 15, 19, 23, 27, 30 and 34 were measured in a variety of solvents, and the results are shown in Table 1. Absorption measurements were recorded at a concentration of 10 μM, and emission measurements were recorded at a concentration of 100 nM. Emission spectra were recorded with excitation at the peak of absorption (S0→S1).
compound,measurement,setting,value
"CC(C)(C)OC(=O)/C=C/c1ccc(C#Cc2ccc(N3CCNCC3)cc2)cc1 [Compound 6, tert-butyl (2E)-3-(4-{2-[4-(piperazin-1-yl)phenyl]ethynyl}phenyl)prop-2-enoate]","non-viable (red, propidium iodide) cells compared with untreated controls",S. epidermidis [1],increase in red fluorescent cells
same,average PCC Value with BODIPY ER-Tracker,HaCaT keratinocytes,0.48
same,growth of B. subtilis,"Bacillus subtilis; 10 μM, effect much more significant in the radiated sample",growth is reduced and lag time extended
same,"growth of B. subtilis, radiated","Bacillus subtilis; 5 and 1 μM, 405 nm, 5 min",some growth inhibition
same,"lag phase of growth of S. epidermidis, photoactivated","S. epidermidis [2]; 1 μM, 405 nm, 5 min, approximately 15 mW/cm^2, untreated lag around 2 hrs",around 15 hrs
same,"growth of S. epidermidis, non-photoactivated","S. epidermidis [2]; 1 μM, not irradiated",minor impact on growth by extended lag phase
same,growth of S. epidermidis,"S. epidermidis [2]; 100 and 10μ concentrations, with or without photoactivation",no growth is evident regardless of any photoactivation
same,λem(max)/nm,[3]; DCM,550 nm
same,λabs(max)/nm,[3]; DCM,368 nm
same,λem(max)/nm,[3]; Toluene,482 nm
same,λabs(max)/nm,[3]; Toluene,358 nm
